From patent publication US11713315B2, “5 to 7 membered heterocyclic amides as JAK inhibitors” (priority 2018, dated 2023)

Test: Lung S9 metabolism
Assay type: in vitro ADME
Conditions: human lung S9; qualitative observation of O-sulfate metabolite peak
Procedure: Lung S9 fractions from human (lot 1410245) were purchased from XenoTech LLC (Lenexa, Kans.). NADPH (Sigma Aldrich, N1630) and 3-phosphoadenosine 5-phosphosulfate (PAPS) (Sigma Aldrich, A1651) were purchased from Sigma Aldrich (St. Louis, Mo.). Acetonitrile and water were obtained from VWR (Radnor, Pa.) and were of HPLC grade or better. Raloxifene and formic acid was purchased from Sigma Aldrich (St. Louis, Mo.). Lung S9 incubations were performed in a water bath at 37° C. in a 96-well polypropylene plate. […] All samples were centrifuged at 2250 g for 10 minutes at 5° C. Supernatant […] was taken from the centrifuged samples and diluted into 1004 HPLC water containing internal standard. […] Mobile Phase A consisted of Water+0.2% formic acid and Mobile Phase B consisted of acetonitrile+0.2% formic acid. Peak integration was accomplished using Gubbs GMSU software (Gubbs Inc., Alpharetta, Ga.). For each sample, peak area ratios were calculated by dividing the analyte peak area by the internal standard peak area. […] Determination of sulfate metabolite formation was made qualitatively by observation of early-eluting peak in the parent ion channel which, based on historical internal data, corresponded to the 0-sulfate metabolite of each parent compound.

Row | Sulfate Appearance | Structure (SMILES)
1 | Yes | CCc1cc(O)c(F)cc1-c1ccc2c(-c3nc4c([nH]3)CN(C)[C@H](C(=O)N3CCN(CCO)C[C@H]3C)C4)n[nH]c2c1 [Compound C-5, ((S)-2-(6-(2-ethyl-5-fluoro-4-hydroxyphenyl)-1H-indazol-3-yl)-5-methyl-4,5,6,7-tetrahydro-3H-imidazo[4,5-c]pyridin-6-yl)((R)-4-(2-hydroxyethyl)-2-methyl-piperazin-1-yl)methanone]
2 | Yes | CCc1cc(O)c(F)cc1-c1ccc2c(-c3nc4c([nH]3)CN(C(C)C)[C@H](C(=O)N3CC[C@H](N(C)C)C3)C4)n[nH]c2c1 [Compound C-6]
3 | Yes | CCc1cc(O)ccc1-c1ccc2c(-c3nc4c([nH]3)CN(C)[C@H](C(=O)N3CCN(C)C[C@@H]3C)C4)n[nH]c2c1 [Compound 3, ((S)-2,4-dimethylpiperazin-1-yl)((S)-2-(6-(2-ethyl-4-hydroxyphenyl)-1H-indazol-3-yl)-5-methyl-4,5,6,7-tetrahydro-3H-imidazo[4,5-c]pyridin-6-yl)methanone]
4 | Yes | CCc1cc(O)ccc1-c1ccc2c(-c3nc4c([nH]3)CN(C(C)C)[C@H](C(=O)N3CCCN(C)CC3)C4)n[nH]c2c1 [Compound 4, (S)-(2-(6-(2-ethyl-4-hydroxyphenyl)-1H-indazol-3-yl)-5-isopropyl-4,5,6,7-tetrahydro-3H-imidazo[4,5-c]pyridin-6-yl)(4-methyl-1,4-diazepan-1-yl)methanone]
5 | Yes | CCCN1Cc2[nH]c(-c3n[nH]c4cc(-c5ccc(O)cc5CC)ccc34)nc2C[C@H]1C(=O)N1C[C@@H]2C[C@H]1CN2C [Compound 2, ((S)-2-(6-(2-ethyl-4-hydroxyphenyl)-1H-indazol-3-yl)-5-propyl-4,5,6,7-tetrahydro-3H-imidazo[4,5-c]pyridin-6-yl)((1S,4S)-5-methyl-2,5-diazabicyclo[2.2.1]heptan-2-yl)methanone]
6 | Yes | CCc1cc(O)ccc1-c1ccc2c(-c3nc4c([nH]3)CN(C(C)C)[C@H](C(=O)N3CC[C@H](N(C)C)C3)C4)n[nH]c2c1 [Compound 6, ((S)-3-(dimethylamino)pyrrolidin-1-yl)((S)-2-(6-(2-ethyl-4-hydroxyphenyl)-1H-indazol-3-yl)-5-isopropyl-4,5,6,7-tetrahydro-3H-imidazo[4,5-c]pyridin-6-yl)methanone]
7 | Yes | CCCN1Cc2[nH]c(-c3n[nH]c4cc(-c5cc(F)c(O)cc5CC)ccc34)nc2C[C@H]1C(=O)N1CCN(CCO)CC1 [Compound C-1, (S)-(2-(6-(2-ethyl-5-fluoro-4-hydroxyphenyl)-1H-indazol-3-yl)-5-propyl-4,5,6,7-tetrahydro-3H-imidazo[4,5-c]pyridin-6-yl)(4-(2-hydroxyethyl)piperazin-1-yl)methanone]
8 | Yes | CCCN1Cc2[nH]c(-c3n[nH]c4cc(-c5ccc(O)cc5CC)ccc34)nc2C[C@H]1C(=O)N1CCN(CCO)CC1 [Compound 1, (S)-(2-(6-(2-ethyl-4-hydroxyphenyl)-1H-indazol-3-yl)-5-propyl-4,5,6,7-tetrahydro-3H-imidazo[4,5-c]pyridin-6-yl)(4-(2-hydroxyethyl)piperazin-1-yl)methanone]
9 | Yes | CCc1cc(O)ccc1-c1ccc2c(-c3nc4c([nH]3)CN(C)[C@H](C(=O)N3CCN(CCO)C[C@H]3C)C4)n[nH]c2c1 [Compound 5, ((S)-2-(6-(2-ethyl-4-hydroxyphenyl)-1H-indazol-3-yl)-5-methyl-4,5,6,7-tetrahydro-3H-imidazo[4,5-c]pyridin-6-yl)((R)-4-(2-hydroxyethyl)-2-methylpiperazin-1-yl)methanone]
10 | Yes | CCc1cc(O)c(F)cc1-c1ccc2c(-c3nc4c([nH]3)CN(C(C)C)[C@H](C(=O)N3CCCN(C)CC3)C4)n[nH]c2c1 [Compound C-4, (S)-(2-(6-(2-ethyl-5-fluoro-4-hydroxyphenyl)-1H-indazol-3-yl)-5-isopropyl-4,5,6,7-tetrahydro-3H-imidazo[4,5-c]pyridin-6-yl)(4-methyl-1,4-diazepan-1-yl)methanone]
11 | Yes | CCc1cc(O)c(F)cc1-c1ccc2c(-c3nc4c([nH]3)CN(C)[C@H](C(=O)N3CCN(C)C[C@@H]3C)C4)n[nH]c2c1 [Compound C-3, ((S)-2,4-dimethylpiperazin-1-yl)((S)-2-(6-(2-ethyl-5-fluoro-4-hydroxyphenyl)-1H-indazol-3-yl)-5-methyl-4,5,6,7-tetrahydro-3H-imidazo[4,5-c]pyridin-6-yl)methanone]
12 | Yes | CCCN1Cc2[nH]c(-c3n[nH]c4cc(-c5cc(F)c(O)cc5CC)ccc34)nc2C[C@H]1C(=O)N1C[C@@H]2C[C@H]1CN2C [Compound C-2]
